Read-outs that look alike come from different tables or passages of the source.
Columns and labels:
[1] = system: codling moth neonates; conditions: cited from earlier work
[2] = system: codling moth neonates; conditions: earlier studies, cited from earlier work
[3] = system: fourth-instar larvae of Heliothis virescens; conditions: fed artificial diet; cited from earlier work
[4] = system: fourth-instar larvae of Spodoptera littoralis; conditions: fed artificial diet; cited from earlier work
[5] = system: Spodoptera frugiperda; conditions: Nu-Lure, Coax or Konsume, concentrations as high as 10%; cited from earlier work
[6] = system: codling moth neonates; assay: Feeding stimulation by L-aspartate on treated apple leaf sections; type: in vivo, Cydia pomonella
Method: (§1) Codling moth adults (C. pomonella) were obtained from the U.S. Department of Agriculture Research Service (USDAD ARS) at Yakima, Wash. The moths were kept at 25° C., 70-80% relative humidity, and a photoperiod of 16:8 (L:D) h. Polyethylene foil was provided as an oviposition surface. […] In all experiments, 0.5-1 hour posthatch neonates were used.
Feeding Stimulation by L-Aspartate. The feeding behavior of test larvae was assessed on apple leaf sections treated with L-aspartate solutions, and by a quantitative analysis of the amounts of leaf tissue ingested. Briefly, L-aspartate was dissolved in 0.02% Triton X-100 in distilled water, and the following concentrations were used for treatment of experimental sections: 0.01, 0.1, and 1 mg/ml. Control leaves were treated with the 0.02% aqueous Triton X-100 only. Circular sections of uniform size (12 mm in diameter) were removed from Honeycrisp (U.S. Pat. No. 7,197) foliage, avoiding the leaf rib area. Test solutions (10 μl) were distributed over the upper surface of the excised sections that subsequently were allowed to air-dry. […] Treated sections were placed in bioassay stations and each section was infested with one neonate larva. The surface area of each leaf disc that was consumed was determined using a stereomicroscope equipped with an ocular square mesh reference scale (No. 12-561-RG2; Fisher, Pittsburgh, Pa.). Thirty-three fragments of leaves, chosen randomly from […] of the leaves, were also measured visually and then dried and weighed to establish a relationship between optical measurement and weight of foliage consumed. Based on this determination, consumed areas of the leaf were converted to an estimated dry weight of leaf tissue.
Thirty to forty neonate larvae were tested individually to each concentration of L-aspartate. The amount of leaf tissue consumed by neonates was estimated 3 and 24 hours after infestation of each bioassay station, and was expressed as average (mean±SEM) leaf consumption.

[7] = system: codling moth neonates; type: in vivo; conditions: addition of 1 mg/ml L-aspartate; LC50 alone divided by LC50 with L-aspartate
Method: as §1

[8] = system: codling moth neonates; assay: Foliage consumption on foliage treated with LC30 of insecticide alone or with L-aspartate; type: in vivo, Cydia pomonella; conditions: LC30 of insecticide alone or with 1 mg/ml L-aspartate, 24 hours
[9] = system: codling moth larvae; assay: Insecticide enhancement with L-aspartate: field trials, fruit damage; type: in vivo, Cydia pomonella; conditions: for fruit damage reduced by: L-aspartate added to insecticides
Method: Field trials were performed in 2010, 2011, and 2012 in a research orchard at the Missouri State Fruit Experiment Station in Mountain Grove, Mo. […] A 1-hectare apple research block was set up for the research. […] To combat these pests and diseases, the block was treated with a standard program of fungicides and insecticides alone or with addition of L-aspartate. An untreated 0.5-hectare refuge for the lepidopteran pests consisting of apple trees that were not treated with fungicides or insecticides was set up on the periphery of the block to provide moderate pressure from the pests, including codling moth.
The same experimental routine was followed each year. Apple trees of Stark Gala variety on M7A rootstock were used in fully randomized design for eight replicates and three treatments (a given insecticide alone, L-aspartate in combination with a given insecticide, and untreated control). Codling moth populations in experimental plots were monitored using delta traps baited with 0.16% codlemone (8E,10E-dodecadien-1-ol). Whenever a weekly count of codling moth males in the traps reached or exceeded five males per trap, an insecticide was applied within the next 1-2 days.
For each replicate, one tree received a spray with an insecticide tank-mixed with L-aspartate. Concentration of L-aspartate was 211 g/100 liters, which corresponded to 395 g/ha. Next, one tree in each replicate was sprayed with the respective insecticide only. Surf-Ac 820 (2.1 kg/ha, 50 g/100 liters) was used as a surfactant in either spray with L-aspartate-insecticide combination or with the respective insecticide only. In addition, one tree in each replicate was left untreated.
Sprays (at delivery rate=4673 liters/ha) were performed using a custom-made motorized handgun sprayer with nine separate tanks (Friend Manufacturing Corporation, Gasport, N.Y.) capable of sending the spray precisely into canopy of height up to 4 meters. To minimize spray drift, a tarpaulin screen was used.
Each year, 200 apples were sampled from each experimental trees treated with insecticide-L-asparate combination, each control tree (treated with insecticides only), and from each untreated tree. One hundred apples per tree were collected 2 weeks after the first flight of codling moth (May 2010, early June in 2011, and May 2012). Remaining apples (100 per tree) were collected at harvest (August in 2010 and 2011 and July in 2012). […] Briefly, 33-34 apples were collected from each of three zones within the canopy (close to the trunk, from the middle of the distance in between the trunk and the tips of the branches, and from the outside portion of the canopy to within 10-15 cm inside). Each time a vertical area from the bottom to the top of the canopy was randomly sampled in a circuitous design around the tree. The apples were immediately weighed and inspected for damage in the laboratory. Once damage was found, the fruit was carefully fragmented with a paring knife, and internal fruit feeders (in some fruits larvae of oriental fruit moth were found) were collected and examined under a stereomicroscope. Codling moth larvae were discriminated from oriental fruit moth larvae by absence of anal comb (Il'ichev et al. 2006). […] Apple weight was expressed as average±SEM weight. Damage was expressed as average±SEM percentage of sampled fruit that was infected by codling moth larvae.

[10] = system: Drosophila N-methyl-D-aspartate (NMDA) receptors; conditions: excitation of receptors; cited from earlier work
[11] = addition of 0.1% Coax; cited from earlier work
[12] = system: codling moth neonates; conditions: residues on artificial diet surface; cited from earlier work
[13] = system: neonates of Choristoneura rosaceana; conditions: 24 hours, concentrations as low as 0.6 ppm (AI); cited from earlier work

## NC1(C(=O)O)CC(C(=O)O)C1 (stereo not drawn) [trans-ACBD]
[1]; in vivo
  reduction of insecticide active ingredient without sacrificing efficacy: > 50%

## N[C@@H](CCC(=O)O)C(=O)[O-].[Na+] [monosodium glutamate]
[2]; 3-hour assays
  concentration at which food consumption increased: 0.03 mg/mL
[2]; 24-hour assays
  effective concentration increasing food consumption: 0.05 mg/mL

## CC1(C)C(C=C(Cl)Cl)C1C(=O)OC(C#N)c1ccc(F)c(Oc2ccccc2)c1 (stereo not drawn) [β-cyfluthrin]
[3]
  LC50: 3.1 μg/g of diet
[4]
  LC50: 0.1 μg/g of diet

## O=C(NC(=O)c1c(F)cccc1F)Nc1ccc(Cl)cc1 [diβubenzuron]
[5]
  mortality on adding phagostimulants: unable to significantly increase mortality

## N[C@@H](CC(=O)O)C(=O)O [L-aspartate, L-Aspartic acid]
[6]; 3-hour assays
  concentration at which food consumption increased: 1 mg/mL
[6]; 24-hour assays
  lowest effective concentration increasing food consumption: 0.1 mg/mL
[6]; 3 hours, 1 mg/ml L-aspartate
  increased foliage consumption in comparison with control: approximately 60%
[6]; 24 hours, 0.1 mg/ml L-aspartate
  increased foliage consumption in comparison with control: approximately 30%
[6]; 24 hours, 1 mg/ml L-aspartate
  increased foliage consumption in comparison with control: approximately 40%
[7]
  efficacy increased by a factor (enhancement ratio): approximately 10
[8]
  foliage consumption: maintained its feeding stimulatory properties even in the presence of each insecticide
[9]; 2010
  fruit damage by first-generation neonates after addition of L-aspartate to insecticide sprays: < 1%
[9]; 2011
  fruit damage by first-generation neonates after addition of L-aspartate to insecticide sprays: 1.2%
[9]; 2012
  fruit damage by first-generation neonates after addition of L-aspartate to insecticide sprays: 1%
[9]; first generation
  fruit damage reduced by: 5%
[9]; second generation
  fruit damage reduced by: 15%
[10]
  potency relative to glutamate: about five times less potent than glutamate

## spinosad
[1]; addition of trans-ACBD
  efficacy enhancement: enhanced almost two times

## CC1(C)[C@H](C(=O)O[C@H](C#N)c2cccc(Oc3ccccc3)c2)[C@@H]1C=C(Br)Br [delthamethrin]
[11]
  toxicity increased (times): 11.3 times

## C/C(=N\C#N)N(C)Cc1ccc(Cl)nc1 [acetamiprid]
[12]
  LC50 with 95% confidence: 1.35 to 2.06 mg (AI)/liter

## spinetoram
[13]
  mortality: 100%

## CC1(C)C(C=C(Cl)Cl)C1C(=O)OC(C#N)c1cccc(Oc2ccccc2)c1 (stereo not shown) [cypermethrin]
[11]
  toxicity increased (times): 2.4 times

## CCc1ccc(C(=O)NN(C(=O)c2cc(C)cc(C)c2)C(C)(C)C)cc1 [tebufenoside]
[5]
  mortality on adding phagostimulants: unable to significantly increase mortality
